Read-outs that look alike come from different tables or passages of the source.
What was measured:
[1] = Rat pharmacokinetics after oral delivery of 10 mg/kg, cyclodextrin formulation; assay type: in vivo; conditions: oral 10 mg/kg, female Sprague Dawley rats
Description: Pharmokinetics of the NCEs were assessed by LC/MS after oral delivery of 10 mg/kg to female Sprague Dawley rats using a cyclodextrin formulation.

[2] = system: PC3 a human prostate carcinoma; assay: Proliferation assay, PC3; assay type: cell-based
Description: (§1) Cell Culture: Human umbilical vein endothelial cells (HUVEC) were obtained from Clonetics (San Diego, Calif.), MCF7 cells were the kind gift of Dr. Dorraya El Ashry (University of Michigan), MDA-MB-231 a human breast carcinoma, PC3 a human prostate carcinoma, and U87-MG a human glioma, cell lines were obtained from ATCC. HUVEC cultures were maintained for up to 5 passages in EGM containing bovine brain extract (Clonetics) and 1× antibiotic-antimycotic (BioWhittaker, Walkersville, Md.). MDA-MB-231, PC3, U87-MG and MCF-7 cells were maintained in DMEM/F12 (1:1) containing 10% (v/v) fetal bovine serum (Hyclone Laboratories, Logan, Utah) and 1× antibiotic-antimycotic. MCF7 cells were used between passage 60 and passage 100.
(§2) Proliferation Assays: Proliferation was measured by cell counting using a Coulter Zl cell counter (Coulter Corporation, Hialeah, Fla.) or by evaluation of DNA synthesis. Each condition was done in triplicate and experiments were repeated at least twice. To determine estrogenicity of the analogs, MCF7 estrogen-dependent proliferation assays were performed. The cells were seeded in complete media at 10,000 cells/well in a 24 well plate after allowing the cells to adhere overnight and the seeding density was determined by cell counts. Cells were washed with PBS (37° C.) and starved by placing them in IMEM-phenol red free media containing 2% charcoal-dextran fetal bovine-stripped serum (Valley Biomedical, Winchester, Va.) and 1× antibiotic-antimycotic. After 3 days of starvation, cells were treated with or without increasing concentrations of compounds, replacing the media every 2-3 days and counted after 7 days of treatment. In order to ensure that only the added test compounds stimulated growth, experiments were performed only with cell cultures that duplicated less than once during the starvation period. Values are expressed as MCF7 stimulation index (SI) relative to 2ME2 (defined as 1.00). A value less than 1.00 indicates reduced estrogenicity. Estradiol is used as a positive control.
(§3) To determine anti-tumor and anti-angiogenic activities of the analogs, proliferation assays were performed by evaluating detection of DNA synthesis by use of the 5-bromo-2′-deoxyuridine (BrdU) cell proliferation colorimetric ELISA kit from Roche (Indianapolis, Ind.) according to the manufacturer's instructions. For BrdU assays, the cells were seeded at 1,000 cells/well (MDA-MB-231, anti-tumor activity) or 3,000 cells/well (HUVEC, anti-angiogenic activity) in a 96 well plate, allowed to attach overnight and then exposed to the compound for 48 h. IC50 value is the concentration at which cell proliferation is inhibited by 50%.
(§4) Antiproliferative activity of the NCEs were assessed in tumor cell lines (MDA-MB-231 a breast carcinoma, PC3 a prostate carcinoma and U87-MG a glioma) and endothelial cells (HUVEC).

[3] = system: Human umbilical vein endothelial cells (HUVEC); assay: BrdU proliferation assay, HUVEC (anti-angiogenic activity); assay type: cell-based
Description: as §1, §2, §3, §4

[4] = system: U87-MG a human glioma; assay: Proliferation assay, U87-MG; assay type: cell-based
Description: as §1, §2, §3, §4

[5] = system: MDA-MB-231 a human breast carcinoma; assay: BrdU proliferation assay, MDA-MB-231 (anti-tumor activity); assay type: cell-based
Description: as §1, §2, §3, §4

[6] = system: human hepatocyte suspensions; assay: Hepatocyte incubations, human; assay type: in vitro ADME; conditions: human hepatocytes, NR = no reaction
Description: (§5) Hepatocyte Incubations: An in vitro measure of metabolism using cells from rat and human liver. Rat and human hepatocyte suspensions (10^6 cells per mL of serum-free (H)CL15 culture medium) were incubated with 2 concentrations (1 and 5 μM) of each of the compounds. Stock solutions were prepared in DMSO, and were further diluted in culture medium to the final test concentrations. 7-Ethoxycoumarin (7-EC) were included as a positive control substrate for P450. A 0.1 M 7-EC stock solution was prepared in DMSO, and the final assay concentration was 100 μM. The reactions were initiated by the addition of the substrates, incubated at 37° C., and terminated after 0, 60 and 120 minutes by addition of acetonitrile. The positive 7-EC control reactions were stopped with perchloric acid or ZnSO4 and BaOH after 60-minutes of incubation. The reaction mixture was centrifuged to remove the cell debris, and the supernatant was used for subsequent analysis by HPLC/LC-MS. If necessary, the supernatants were flash frozen in liquid N2 and stored at −70° C. until further analysis. HPLC was used to analyze product formation from 7-EC. Analyses to determine the concentration of the test compounds were carried out using reverse phase HPLC with tandem mass spectrometric detection (LC-MS/MS). Samples were analyzed to measure the disappearance of parent compound over time. The rate of metabolism was estimated by fitting a curve to the data for each concentration against time using GraphPad Prism Version 3.02 software.

[7] = system: Rat hepatocyte suspensions; assay: Hepatocyte incubations, rat; assay type: in vitro ADME; conditions: rat hepatocytes, NR = no reaction
Description: as §5

[8] = system: MCF7 cells; assay: MCF7 estrogen-dependent proliferation assay (estrogenicity); assay type: cell-based, human; conditions: stimulation index, 2ME2 defined as 1.00; less than 1.00 = reduced estrogenicity; 7 days of treatment
Description: as §1
as §2, with “[…].” for “Values are expressed as MCF7 stimulation index (SI) relative to 2ME2 (defined as 1.00). A value less than 1.00 indicates reduced estrogenicity.”

[9] = Example 2, Table VII, read-out: IC50 value (μM) PC3
[10] = Example 2, Table VII, read-out: IC50 value (μM) HUVEC
[11] = Example 2, Table VII, read-out: IC50 value (μM) U87-MG
[12] = Example 2, Table VII, read-out: IC50 value (μM) MDA-MB-231

SMILES | AUCall [1] [ng·h/mL] | Cmax [1] [ng/mL] | Tmax [1] [min] | T½ [1] [min] | IC50 [2, 9] [µM] | IC50 [3, 10] [µM] | IC50 [4, 11] [µM] | IC50 [5, 12] [µM] | other results
COc1cc2c(cc1C(N)=O)CC[C@@H]1[C@@H]2CC[C@@]2(C)[C@H]1CCC21OCCO1 [ENMD-1565, 17-(1,3-dioxolane)-2-methoxyestra-1,3,5(10)-triene-3 carboxamide] | 4657 | 1379 | 60 | 97.8 | 1.91 ± 0.36 | 0.91 | 1.27 ± 0.44 | 1.21 ± 0.47 | –
COc1cc2c(cc1O)CC[C@@H]1[C@@H]2CC[C@]2(C)[C@@H](O)CC[C@@H]12 [Compound 1, 2-Methoxyestradiol, reference compound] | – | – | – | – | – | – | – | – | Hepatocyte Human 60/120′ (1 uM): 60′ ([6]; 1 uM, 60 minutes): 0/0; Hepatocyte Human 60/120′ (1 uM): 120′ ([6]; 1 uM, 120 minutes): 0/0; Hepatocyte Human 60/120′ (5 uM): 60′ ([6]; 5 uM, 60 minutes): 20; Hepatocyte Human 60/120′ (5 uM): 120′ ([6]; 5 uM, 120 minutes): 0; IC50 ([2]; Homo sapiens, proliferation, read-out: PC3 (IC50 μM)): 1.08 ± 0.5 µM; IC50 ([3]; Homo sapiens, HUVEC, BrdU DNA synthesis, 48 h exposure, read-out: HUVEC (IC50 μM)): 0.68 ± 0.15 µM; Hepatocyte Rat 60/120′ (1 uM): 60′ ([7]; 1 uM, 60 minutes): 0/0; Hepatocyte Rat 60/120′ (1 uM): 120′ ([7]; 1 uM, 120 minutes): 0/0; Hepatocyte Rat 60/120′ (5 uM): 60′ ([7]; 5 uM, 60 minutes, unit assumed): 39%; Hepatocyte Rat 60/120′ (5 uM): 120′ ([7]; 5 uM, 120 minutes, unit assumed): 24%; MCF7 SI Relative to 2ME2 [8]: 1.00; IC50 ([4]; Homo sapiens, U-87 MG, proliferation, read-out: U87-MG (IC50 μM)): 1.48 ± 0.62 µM; IC50 ([5]; Homo sapiens, MDA-MB-231, BrdU DNA synthesis, 48 h exposure, read-out: MDA-MB-231 (IC50 μM)): 0.69 ± 0.14 µM
COc1cc2c(cc1C(N)=O)CC[C@@H]1[C@@H]2CC[C@]2(C)[C@@H](OC)CC[C@@H]12 [ENMD-1756, 2,17β-(bismethoxy)estra-1,3,5(10)-triene-3-carboxamide] | 1442 | 665 | 30 | 53.4 | 1.14 ± 0.45 | 0.62 | 0.71 ± 0.09 | 0.89 ± 0.21 | –
